In ChEMBL document CHEMBL1201862, “PubChem BioAssay data set” (2004):
Several values for one entry are separate records, joined by “and”; a condition that tells them apart may be missing. Identical values can stand only once.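 Five compound concentrations were applied to cells in 96-well plates for 48 hours; endpoints were derived by simple linear interpolation of the resulting dose-response curve. GI50 = concentration required for 50% inhibition of growth.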 Activity calls are given as the source filed them. No stated cut-off is given here; in the data, active = GI50 up to about 1.1 µM and inactive = higher.

Experiments:
Test in all cases: NCI anticancer screen, dose series, 48 h
A498 = test system: A498
ACHN = test system: ACHN
CCRF-CEM = test system: CCRF-CEM
HCC 2998 = test system: HCC 2998
HCT-15 = test system: HCT-15
HL-60 = test system: HL-60
HT-29 = test system: HT-29
IGROV-1 = test system: IGROV-1
K562 = test system: K562
LOX IMVI = test system: LOX IMVI
M14 = test system: M14
NCI-H460 = test system: NCI-H460
NCI-H522 = test system: NCI-H522
OVCAR-3 = test system: OVCAR-3
OVCAR-5 = test system: OVCAR-5
OVCAR-8 = test system: OVCAR-8
RXF 393 = test system: RXF 393
SF-268 = test system: SF-268
SF-295 = test system: SF-295
SK-MEL-28 = test system: SK-MEL-28
SK-MEL-5 = test system: SK-MEL-5
SK-OV-3 = test system: SK-OV-3
SN12C = test system: SN12C
SNB-19 = test system: SNB-19
SNB-75 = test system: SNB-75
SR = test system: SR
SW-620 = test system: SW-620
TK-10 = test system: TK-10
U-251 = test system: U-251
UACC-257 = test system: UACC-257
UACC-62 = test system: UACC-62
UO-31 = test system: UO-31
CAKI-1 = test system: CAKI-1
COLO 205 = test system: COLO 205
DU-145 = test system: DU-145
EKVX = test system: EKVX
HOP-62 = test system: HOP-62
HOP-92 = test system: HOP-92
Hs-578T = test system: Hs-578T
KM12 = test system: KM12
MCF7 = test system: MCF7
MDA-MB-435 = test system: MDA-MB-435
MDA-N = test system: MDA-N
MOLT-4 = test system: MOLT-4
NCI-H226 = test system: NCI-H226
NCI-H23 = test system: NCI-H23
NCI/ADR-RES = test system: NCI/ADR-RES
OVCAR-4 = test system: OVCAR-4
PC-3 = test system: PC-3
RPMI-8226 = test system: RPMI-8226
SF-539 = test system: SF-539
SK-MEL-2 = test system: SK-MEL-2
T47D = test system: T47D
MDA-MB-231 = test system: MDA-MB-231
Malme-3M = test system: Malme-3M

How did the GI50 (A498) turn out when `O=C(N/N=C/c1cc(Cl)cc(Cl)c1O)c1ccccc1O` was run?
Its GI50 is 7.5 µM (inactive).

And the GI50 (ACHN)?
The GI50 was 447 nM (active).

And the GI50 (CCRF-CEM)?
Its GI50 is 0.279 µM (active).

What about the GI50 (HCC 2998) of the same compound?
The GI50 was 2.17 µM (inactive).

And the GI50 (HCT-15)?
Its GI50 is 0.46 µM.

And the GI50 (HL-60)?
Its GI50 is 221 nM (active).

What about the GI50 (HT-29) of the same compound?
Its GI50 is 3.65 µM (inactive).

And the GI50 (IGROV-1)?
Its GI50 is 2.62 µM (inactive).

And the GI50 (K562)?
Its GI50 is 977 nM (active).

And the GI50 (LOX IMVI)?
The GI50 was 398 nM (active).

What about the GI50 (M14) of the same compound?
Its GI50 is 847 nM (active).

And the GI50 (NCI-H460)?
The GI50 was 0.656 µM (active).

And the GI50 (NCI-H522)?
The GI50 was 441 nM (active).

And the GI50 (OVCAR-3)?
Its GI50 is 305 nM (active).

And the GI50 (OVCAR-5)?
Its GI50 is 2.08 µM (inactive).

And the GI50 (OVCAR-8)?
The GI50 was 0.198 µM (active).

What about the GI50 (RXF 393) of the same compound?
The GI50 was 946 nM (active).

And the GI50 (SF-268)?
Its GI50 is 480 nM (active).

What about the GI50 (SF-295) of the same compound?
The GI50 was 0.721 µM (active).

What about the GI50 (SK-MEL-28) of the same compound?
Its GI50 is 1.31 µM (inactive).

What about the GI50 (SK-MEL-5) of the same compound?
The GI50 was 1.57 µM (inactive).

And the GI50 (SK-OV-3)?
The GI50 was 0.687 µM (active).

And the GI50 (SN12C)?
The GI50 was 2.36 µM (inactive).

And the GI50 (SNB-19)?
The GI50 was 3.18 µM (inactive).

And the GI50 (SNB-75)?
The GI50 was 2.44 µM (inactive).

What about the GI50 (SR) of the same compound?
The GI50 was 388 nM (active).

What about the GI50 (SW-620) of the same compound?
Its GI50 is 0.601 µM (active).

What about the GI50 (TK-10) of the same compound?
The GI50 was 2.23 µM (inactive).

What about the GI50 (U-251) of the same compound?
The GI50 was 849 nM (active).

And the GI50 (UACC-257)?
The GI50 was 2.04 µM (inactive).

What about the GI50 (UACC-62) of the same compound?
Its GI50 is 0.323 µM (active).

And the GI50 (UO-31)?
The GI50 was 2.88 µM (inactive).

`CC(=O)O[C@@H]1CN(S(=O)(=O)c2ccc(C)cc2)C[C@@H]1C1CCCCC1` was tested. Which GI50 (A498) did it give?
Its GI50 is 20 µM (inactive).

And the GI50 (ACHN)?
Its GI50 is 37500 nM (inactive).

What about the GI50 (CAKI-1) of the same compound?
The GI50 was 19 µM (inactive).

What about the GI50 (CCRF-CEM) of the same compound?
Its GI50 is 37.8 µM (inactive).

What about the GI50 (COLO 205) of the same compound?
Its GI50 is 18.5 µM (inactive).

What about the GI50 (DU-145) of the same compound?
The GI50 was 30.8 µM (inactive).

What about the GI50 (EKVX) of the same compound?
The GI50 was 19.9 µM (inactive).

What about the GI50 (HCC 2998) of the same compound?
The GI50 was 42.5 µM (inactive).

What about the GI50 (HCT-15) of the same compound?
Its GI50 is 32.6 µM.

And the GI50 (HOP-62)?
The GI50 was 21.9 µM (inactive).

And the GI50 (HOP-92)?
Its GI50 is 14.7 µM (inactive).

And the GI50 (HT-29)?
The GI50 was 22.9 µM (inactive).

And the GI50 (Hs-578T)?
The GI50 was 11.5 µM (inactive).

What about the GI50 (IGROV-1) of the same compound?
Its GI50 is 17.3 µM (inactive).

And the GI50 (K562)?
Its GI50 is 45700 nM (inactive).

And the GI50 (KM12)?
The GI50 was 16.1 µM (inactive).

And the GI50 (LOX IMVI)?
The GI50 was 24600 nM (inactive).

And the GI50 (M14)?
The GI50 was 15800 nM (inactive).

What about the GI50 (MCF7) of the same compound?
The GI50 was 19.4 µM (inactive).

What about the GI50 (MDA-MB-435) of the same compound?
The GI50 was 18.7 µM (inactive).

What about the GI50 (MDA-N) of the same compound?
The GI50 was 17.1 µM (inactive).

And the GI50 (MOLT-4)?
The GI50 was 25.5 µM (inactive).

And the GI50 (NCI-H226)?
The GI50 was 16.5 µM (inactive).

What about the GI50 (NCI-H23) of the same compound?
Its GI50 is 38.5 µM (inactive).

What about the GI50 (NCI-H460) of the same compound?
The GI50 was 34.5 µM (inactive).

What about the GI50 (NCI/ADR-RES) of the same compound?
Its GI50 is 20.6 µM (inactive).

What about the GI50 (OVCAR-3) of the same compound?
The GI50 was 15000 nM (inactive).

What about the GI50 (OVCAR-4) of the same compound?
Its GI50 is 50.6 µM (inactive).

And the GI50 (OVCAR-5)?
The GI50 was 26.7 µM (inactive).

What about the GI50 (OVCAR-8) of the same compound?
The GI50 was 24.8 µM (inactive).

And the GI50 (PC-3)?
Its GI50 is 18.3 µM (inactive).

What about the GI50 (RPMI-8226) of the same compound?
Its GI50 is 25.5 µM (inactive).

And the GI50 (SF-268)?
Its GI50 is 16800 nM (inactive).

And the GI50 (SF-295)?
Its GI50 is 37.9 µM (inactive).

And the GI50 (SF-539)?
The GI50 was < 0.01 µM (active).

And the GI50 (SK-MEL-28)?
The GI50 was 14.5 µM (inactive).

And the GI50 (SK-MEL-2)?
Its GI50 is 17 µM (inactive).

What about the GI50 (SK-MEL-5) of the same compound?
The GI50 was 19.2 µM (inactive).

What about the GI50 (SK-OV-3) of the same compound?
Its GI50 is 62.2 µM (inactive).

And the GI50 (SNB-19)?
The GI50 was 54.8 µM (inactive).

What about the GI50 (SNB-75) of the same compound?
Its GI50 is 19.8 µM (inactive).

What about the GI50 (SR) of the same compound?
Its GI50 is 23400 nM (inactive).

And the GI50 (SW-620)?
Its GI50 is 20.4 µM (inactive).

What about the GI50 (T47D) of the same compound?
The GI50 was 31.8 µM (inactive).

And the GI50 (TK-10)?
The GI50 was 14.2 µM (inactive).

What about the GI50 (U-251) of the same compound?
Its GI50 is 17700 nM (inactive).

What about the GI50 (UACC-257) of the same compound?
The GI50 was 15.4 µM (inactive).

And the GI50 (UACC-62)?
The GI50 was 16.1 µM (inactive).

And the GI50 (UO-31)?
The GI50 was 31 µM (inactive).

Which results are given for `OCC(O)C(O)C(O)C(/C=N\Nc1ncnc2c(Br)cc(Br)cc12)=N/Nc1ncnc2c(Br)cc(Br)cc12` (stereo unspecified)?
GI50 (ACHN): 5.58 µM (inactive) and 6.35 µM (inactive); GI50 (CAKI-1): 4.85 µM (inactive) and 6.34 µM (inactive); GI50 (COLO 205): 3.17 µM (inactive) and 3.52 µM (inactive); GI50 (DU-145): 5.9 µM (inactive) and 3.42 µM (inactive); GI50 (HT-29): 4.84 µM (inactive) and 4.55 µM (inactive); GI50 (IGROV-1): 4.71 µM (inactive) and 2.49 µM (inactive); GI50 (K562): 5.07 µM (inactive) and 5.15 µM (inactive); GI50 (LOX IMVI): 6.43 µM (inactive) and 10.1 µM (inactive); GI50 (M14): 8.2 µM (inactive) and 8.38 µM (inactive); GI50 (MCF7): 1.24 µM (inactive) and 817 nM (active); GI50 (MDA-MB-231): 3.67 µM (inactive) and 3.79 µM (inactive); GI50 (MDA-N): 7.46 µM (inactive) and 6.08 µM (inactive); GI50 (Malme-3M): 6.4 µM (inactive) and 3.76 µM (inactive); GI50 (NCI-H226): 3.58 µM (inactive); GI50 (OVCAR-3): 4.28 µM (inactive) and 2.88 µM (inactive); GI50 (OVCAR-4): 2.81 µM (inactive) and 3.27 µM (inactive); GI50 (SF-268): 3.78 µM (inactive) and 3.15 µM (inactive); GI50 (SF-539): 8.85 µM (inactive); GI50 (SK-MEL-2): 5.41 µM (inactive) and 3.27 µM (inactive); GI50 (SK-MEL-5): 3.45 µM (inactive) and 4.71 µM (inactive); GI50 (SR): 3.4 µM (inactive) and 5.25 µM (inactive); GI50 (SW-620): 5.46 µM (inactive); GI50 (T47D): 2.57 µM (inactive) and 2.62 µM (inactive); GI50 (U-251): 2.49 µM (inactive) and 4.46 µM (inactive); GI50 (UACC-257): 8.15 µM (inactive) and 12.9 µM (inactive)
